Measurements published in PubChem BioAssay AID1963972 (Molecular Pharmacology Branch, DTP, NCI, 2024).

System: 945468-187-T-J2-PDC spheroids viability
Assay: Anticancer human tumor 945468-187-T-J2-PDC patient-derived rectal carcinoma cell line growth inhibition [PI3K]
Conditions: spheroids with HUVEC and MSC; for IC50: curve of first compound; for viability, T/C: stronger effect = lower value; active means viability on the fitted dose curve at most 10% of control; inactive means the rest
Procedure, shortened: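 Agents were dosed from a top concentration near clinical Cmax (otherwise 10 microM) in half-log decrements, alone or combined with PI3K inhibitors. The spheroids contain tumor cells plus endothelial (HUVEC) and MSC stroma; viability is measured.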

[1] = second compound 0.00316 µM, first compound 0.0316 µM
[2] = second compound 0.00316 µM, first compound 0.1 µM
[3] = second compound 0.00316 µM, first compound 0.316 µM
[4] = second compound 0.00316 µM, first compound 1 µM
[5] = second compound 0.00316 µM, first compound 3.16 µM
[6] = second compound 0.00316 µM, first compound 10 µM
[7] = second compound 0.01 µM, first compound 0.0316 µM
[8] = second compound 0.01 µM, first compound 0.1 µM
[9] = second compound 0.01 µM, first compound 0.316 µM
[10] = second compound 0.01 µM, first compound 1 µM
[11] = second compound 0.01 µM, first compound 3.16 µM
[12] = second compound 0.01 µM, first compound 10 µM
[13] = second compound 0.0316 µM, first compound 0.0316 µM
[14] = second compound 0.0316 µM, first compound 0.1 µM
[15] = second compound 0.0316 µM, first compound 0.316 µM
[16] = second compound 0.0316 µM, first compound 1 µM
[17] = second compound 0.0316 µM, first compound 3.16 µM
[18] = second compound 0.0316 µM, first compound 10 µM
[19] = second compound 0.1 µM, first compound 0.0316 µM
[20] = second compound 0.1 µM, first compound 0.1 µM
[21] = second compound 0.1 µM, first compound 0.316 µM
[22] = second compound 0.1 µM, first compound 1 µM
[23] = second compound 0.1 µM, first compound 3.16 µM
[24] = second compound 0.1 µM, first compound 10 µM
[25] = second compound 0.316 µM, first compound 0.0316 µM
[26] = second compound 0.316 µM, first compound 0.1 µM
[27] = second compound 0.316 µM, first compound 0.316 µM
[28] = second compound 0.316 µM, first compound 1 µM
[29] = second compound 0.316 µM, first compound 3.16 µM
[30] = second compound 0.316 µM, first compound 10 µM
[31] = second compound 1 µM, first compound 0.0316 µM
[32] = second compound 1 µM, first compound 0.1 µM
[33] = second compound 1 µM, first compound 0.316 µM
[34] = second compound 1 µM, first compound 1 µM
[35] = second compound 1 µM, first compound 3.16 µM
[36] = second compound 1 µM, first compound 10 µM
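Further: spheroids exposed to compounds for seven days before reading.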

CC(C)NCC(C(=O)N1CCN(c2ncnc3c2C(C)CC3O)CC1)c1ccc(Cl)cc1 (stereo not drawn) + COc1c(OCCCN2CCOCC2)ccc2c3n(c(=NC(=O)c4cnc(N)nc4)nc12)CCN3
inactive: viability, T/C [1] 88.9% | viability, T/C [2] 110% | viability, T/C [3] 129% | viability, T/C [4] 106% | viability, T/C [5] 110% | viability, T/C [6] 90.3% | viability, T/C [7] 104% | viability, T/C [8] 109% | viability, T/C [9] 111% | viability, T/C [10] 87.7% | viability, T/C [11] 90.2% | viability, T/C [12] 86.6% | viability, T/C [13] 83.6% | viability, T/C [14] 125% | viability, T/C [15] 112% | viability, T/C [16] 103% | viability, T/C [17] 84% | viability, T/C [18] 101% | viability, T/C [19] 87.2% | viability, T/C [20] 106% | viability, T/C [21] 120% | viability, T/C [22] 80.5% | viability, T/C [23] 82.3% | viability, T/C [24] 86.1% | viability, T/C [25] 47.1% | viability, T/C [26] 51.6% | viability, T/C [27] 39.7% | viability, T/C [28] 44.6% | viability, T/C [29] 45.4% | viability, T/C [30] 36.8% | viability, T/C [31] 21% | viability, T/C [32] 21.3% | viability, T/C [33] 23.3% | viability, T/C [34] 20.9% | viability, T/C [35] 24.6% | viability, T/C [36] 21.6%
< 0.0316 µM: IC50 (second compound 0.316 µM) | IC50 (second compound 1 µM)
> 10 µM: IC50 (second compound 0.00316 µM) | IC50 (second compound 0.01 µM) | IC50 (second compound 0.0316 µM) | IC50 (second compound 0.1 µM)

CCN1CCN(Cc2ccc(Nc3ncc(F)c(-c4cc(F)c5nc(C)n(C(C)C)c5c4)n3)nc2)CC1 + COc1c(OCCCN2CCOCC2)ccc2c3n(c(=NC(=O)c4cnc(N)nc4)nc12)CCN3
> 1 µM: IC50 (second compound 0.00316 µM) | IC50 (second compound 0.01 µM)
0.199 µM: IC50 (second compound 0.1 µM)
inactive: viability, T/C (second compound 0.00316 µM, first compound 0.00316 µM) 107% | viability, T/C (second compound 0.00316 µM, first compound 0.01 µM) 93.5% | viability, T/C [1] 104% | viability, T/C [2] 102% | viability, T/C [3] 87.6% | viability, T/C [4] 75.1% | viability, T/C (second compound 0.01 µM, first compound 0.00316 µM) 119% | viability, T/C (second compound 0.01 µM, first compound 0.01 µM) 128% | viability, T/C [7] 94.9% | viability, T/C [8] 115% | viability, T/C [9] 84% | viability, T/C [10] 66.2% | viability, T/C (second compound 0.0316 µM, first compound 0.00316 µM) 120% | viability, T/C (second compound 0.0316 µM, first compound 0.01 µM) 110% | viability, T/C [13] 92.9% | viability, T/C [14] 112% | viability, T/C [15] 69% | viability, T/C [16] 41.6% | viability, T/C (second compound 0.1 µM, first compound 0.00316 µM) 105% | viability, T/C (second compound 0.1 µM, first compound 0.01 µM) 91.8% | viability, T/C [19] 93.1% | viability, T/C [20] 72.7% | viability, T/C [21] 34.4% | viability, T/C [22] 22.1% | viability, T/C (second compound 0.316 µM, first compound 0.00316 µM) 48.7% | viability, T/C (second compound 0.316 µM, first compound 0.01 µM) 41.2% | viability, T/C [25] 39.5% | viability, T/C [26] 24.4% | viability, T/C [27] 20.2% | viability, T/C [28] 21.4% | viability, T/C (second compound 1 µM, first compound 0.00316 µM) 21.7% | viability, T/C (second compound 1 µM, first compound 0.01 µM) 20.8% | viability, T/C [31] 14.1% | viability, T/C [32] 17.9% | viability, T/C [33] 14.3% | viability, T/C [34] 16.3%
0.704 µM: IC50 (second compound 0.0316 µM)
< 0.00316 µM: IC50 (second compound 0.316 µM) | IC50 (second compound 1 µM)

Cn1ncc(Cl)c1-c1cc(C(=O)NC(CN)Cc2cccc(F)c2)sc1Cl (stereo not drawn) + COc1c(OCCCN2CCOCC2)ccc2c3n(c(=NC(=O)c4cnc(N)nc4)nc12)CCN3
> 10 µM: IC50 (second compound 0.00316 µM) | IC50 (second compound 0.01 µM)
< 0.0316 µM: IC50 (second compound 0.316 µM) | IC50 (second compound 1 µM)
2.66 µM: IC50 (second compound 0.1 µM)
4.53 µM: IC50 (second compound 0.0316 µM)
inactive: viability, T/C [1] 109% | viability, T/C [2] 75.3% | viability, T/C [3] 98.3% | viability, T/C [4] 110% | viability, T/C [5] 76.8% | viability, T/C [6] 50.6% | viability, T/C [7] 109% | viability, T/C [8] 102% | viability, T/C [9] 90.5% | viability, T/C [10] 86.6% | viability, T/C [11] 77.2% | viability, T/C [12] 53.3% | viability, T/C [13] 87.3% | viability, T/C [14] 82.5% | viability, T/C [15] 82.4% | viability, T/C [16] 68.9% | viability, T/C [17] 54.3% | viability, T/C [18] 41.4% | viability, T/C [19] 65.6% | viability, T/C [20] 84.9% | viability, T/C [21] 75.2% | viability, T/C [22] 73% | viability, T/C [23] 46% | viability, T/C [24] 32.2% | viability, T/C [25] 38.8% | viability, T/C [26] 34.8% | viability, T/C [27] 35.4% | viability, T/C [28] 28.8% | viability, T/C [29] 32.2% | viability, T/C [30] 26.1% | viability, T/C [31] 18.5% | viability, T/C [32] 18.8% | viability, T/C [33] 18.2% | viability, T/C [34] 19.6% | viability, T/C [35] 18.4% | viability, T/C [36] 14.2%

Cn1nccc1Nc1nccc(-c2ccn(C(CO)c3ccc(Cl)c(F)c3)c(=O)c2)n1 (stereo not drawn) + COc1c(OCCCN2CCOCC2)ccc2c3n(c(=NC(=O)c4cnc(N)nc4)nc12)CCN3
> 10 µM: IC50 (second compound 0.00316 µM) | IC50 (second compound 0.01 µM) | IC50 (second compound 0.0316 µM) | IC50 (second compound 0.1 µM)
< 0.0316 µM: IC50 (second compound 0.316 µM) | IC50 (second compound 1 µM)
inactive: viability, T/C [1] 117% | viability, T/C [2] 108% | viability, T/C [3] 98.9% | viability, T/C [4] 83.7% | viability, T/C [5] 90.9% | viability, T/C [6] 80.7% | viability, T/C [7] 99% | viability, T/C [8] 93.7% | viability, T/C [9] 90.1% | viability, T/C [10] 136% | viability, T/C [11] 127% | viability, T/C [12] 84.2% | viability, T/C [13] 91.9% | viability, T/C [14] 102% | viability, T/C [15] 100% | viability, T/C [16] 89.1% | viability, T/C [17] 93.5% | viability, T/C [18] 89.2% | viability, T/C [19] 71% | viability, T/C [20] 75.9% | viability, T/C [21] 81.1% | viability, T/C [22] 82.2% | viability, T/C [23] 84.3% | viability, T/C [24] 64.9% | viability, T/C [25] 39.8% | viability, T/C [26] 45.6% | viability, T/C [27] 45.3% | viability, T/C [28] 41.7% | viability, T/C [29] 33.4% | viability, T/C [30] 27.8% | viability, T/C [31] 18.1% | viability, T/C [32] 19.8% | viability, T/C [33] 21.8% | viability, T/C [34] 18.6% | viability, T/C [35] 18.6% | viability, T/C [36] 16.8%
